# In publication PMC3687672 (British Journal of Pharmacology, 2013):
# Legend:
# [1] = molecular target: T1, large-conductance Ca2+-activated K+ (BKCa) channel (Homo sapiens, UniProt Q12791); assay: whole-cell patch clamp; type: cell-based
# [2] = molecular target: T1, large-conductance Ca2+-activated K+ (BKCa) channel; assay: single-channel inside-out patch clamp; type: cell-based
# T1 sequence (Q12791 whole entry): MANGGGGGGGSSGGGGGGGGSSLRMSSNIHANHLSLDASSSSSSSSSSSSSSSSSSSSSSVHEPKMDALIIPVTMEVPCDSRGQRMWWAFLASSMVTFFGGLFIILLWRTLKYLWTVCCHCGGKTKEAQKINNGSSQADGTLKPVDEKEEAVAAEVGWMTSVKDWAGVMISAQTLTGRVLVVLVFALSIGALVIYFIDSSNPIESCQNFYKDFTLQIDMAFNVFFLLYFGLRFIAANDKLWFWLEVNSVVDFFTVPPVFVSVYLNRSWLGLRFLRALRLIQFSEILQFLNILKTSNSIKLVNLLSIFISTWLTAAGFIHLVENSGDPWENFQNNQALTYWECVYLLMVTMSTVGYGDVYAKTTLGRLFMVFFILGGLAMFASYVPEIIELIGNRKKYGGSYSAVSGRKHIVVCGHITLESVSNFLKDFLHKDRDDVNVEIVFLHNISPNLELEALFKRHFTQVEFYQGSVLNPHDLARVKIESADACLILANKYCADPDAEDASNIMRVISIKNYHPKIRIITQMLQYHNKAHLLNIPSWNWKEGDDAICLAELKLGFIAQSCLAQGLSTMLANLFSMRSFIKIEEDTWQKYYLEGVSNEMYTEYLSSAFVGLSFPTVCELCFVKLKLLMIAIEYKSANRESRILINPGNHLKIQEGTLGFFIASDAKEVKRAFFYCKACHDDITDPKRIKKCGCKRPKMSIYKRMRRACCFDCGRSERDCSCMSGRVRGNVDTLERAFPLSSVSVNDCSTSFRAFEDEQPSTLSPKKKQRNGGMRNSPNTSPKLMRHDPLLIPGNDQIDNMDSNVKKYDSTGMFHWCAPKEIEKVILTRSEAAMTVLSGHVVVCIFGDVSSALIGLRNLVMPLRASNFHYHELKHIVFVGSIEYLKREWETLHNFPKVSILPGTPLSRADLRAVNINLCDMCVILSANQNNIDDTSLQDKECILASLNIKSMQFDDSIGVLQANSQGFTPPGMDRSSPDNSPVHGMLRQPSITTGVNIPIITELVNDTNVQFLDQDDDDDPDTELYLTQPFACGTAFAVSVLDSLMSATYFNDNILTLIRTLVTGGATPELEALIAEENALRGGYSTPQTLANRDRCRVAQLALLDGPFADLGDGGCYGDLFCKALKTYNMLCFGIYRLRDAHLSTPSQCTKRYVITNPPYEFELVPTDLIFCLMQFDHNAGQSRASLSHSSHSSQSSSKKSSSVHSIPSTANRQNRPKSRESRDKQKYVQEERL
SMILES,whole-cell patch clamp [1] [µM],single-channel inside-out patch clamp; whole-cell patch clamp with GDPbetaS [2] [µM]
CC(C)(O)[C@H]1O[C@H]2CC[C@@]3(C)[C@@](O)(CC[C@H]4Cc5c([nH]c6ccccc56)[C@@]43C)C2=CC1=O [paxilline],1,–
CCCCC/C=C\C/C=C\C/C=C\C/C=C\CCCC(=O)NCC(=O)O [NAGly],–,3
